Measured values taken from BigSolDB 2.1.

O=C1OC(=O)c2ccc(Br)c3cccc1c23
solubility (mole fraction)
Conditions | 278.15 K | 283.15 K | 288.15 K | 293.15 K | 298.15 K | 303.15 K
in acetic acid | 0.000263 | 0.000316 | 0.000382 | 0.00046 | 0.000565 | 0.000666
in acetone | 0.001 | 0.00119 | 0.00138 | 0.00161 | 0.00192 | 0.00224
in ethanol | 2.66e-05 | 3.65e-05 | 5.08e-05 | 6.99e-05 | 9.53e-05 | 0.000131
in methanol | 4.62e-05 | 6.41e-05 | 8.62e-05 | 0.000118 | 0.00016 | 0.000212
